Data taken from patent EP1091938B1, “ANTIHISTAMINIC PIPERIDINE DERIVATIVES AND INTERMEDIATES FOR THE PREPARATION THEREOF” (Aventisub II Inc., priority 1998, dated 2000).

Experiments:
[1] = biological target: T1, H1-histaminergic receptors (Rattus norvegicus, UniProt P31390); assay: [3H] pyrilamine binding in rat cortex membranes; settings: displacement of 3H pyrilamine (2 nM final), rat cortex homogenate, 30 minute incubation at room temperature; Ki from IC50 with the Cheng-Prusoff equation
T1 construct: The brains of young male rats are removed; The cortici are dissected; from tissue; host or cells: rat brain cortex membrane homogenate
T1 sequence (P31390 whole entry): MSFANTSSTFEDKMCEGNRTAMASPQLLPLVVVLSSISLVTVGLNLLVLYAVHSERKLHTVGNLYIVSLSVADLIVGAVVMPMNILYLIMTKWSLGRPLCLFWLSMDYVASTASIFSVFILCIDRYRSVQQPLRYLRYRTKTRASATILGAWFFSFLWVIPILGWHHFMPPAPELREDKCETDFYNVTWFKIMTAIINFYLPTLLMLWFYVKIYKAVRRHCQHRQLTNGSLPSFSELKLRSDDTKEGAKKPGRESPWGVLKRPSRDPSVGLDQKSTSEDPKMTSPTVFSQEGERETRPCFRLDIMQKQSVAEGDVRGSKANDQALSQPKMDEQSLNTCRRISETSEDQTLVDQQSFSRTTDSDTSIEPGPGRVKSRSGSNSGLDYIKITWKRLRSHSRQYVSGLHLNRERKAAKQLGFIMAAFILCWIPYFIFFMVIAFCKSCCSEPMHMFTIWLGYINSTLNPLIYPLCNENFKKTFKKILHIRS
Procedure: Antihistaminic potential is measured by affinity of a test compound for [^3H] pyrilamine binding sites associated with the antagonist component of H1-histaminergic receptors in animal brain membranes. Affinity for this receptor is indicative of the potential of a test compound to interact with central and peripheral H1-histaminergic receptors.
The following method is used to determine the affinity of test compounds for [^3H] pyrilamine binding sites in rat cortex.
The brains of young male rats are removed. The cortici are dissected and stored at -20°C or immediately used. The tissue is homogenized in 10 ml of ice-cold […] K/NaPO4 buffer (pH 7.4) using a Polytron (setting 6 for 15 seconds). […]
The brains of young male rats are removed. […] The filters are either transferred to scintillation vials and 10 ml Quicksafe A is added for liquid scintillation spectrometry or a thin layer of solid scintillant is melted onto the filters and the filters then counted using a betaplate beta counter. Specific binding of ^3H pyrilamine is measured as the excess over blanks taken in the presence of 2.10-6 M promethazine. Protein content of the membranes is determined by the method of Lowry et al., J. Biol. Chem. 193, 265-275 (1951). Displacement curves are analyzed using the GraphPad (GraphPad Software, Inc.) or similar program to obtain Hill slopes and IC50 values. […]

[2] = extent of first pass metabolism to two primary metabolites; cited from earlier work

| SMILES | Ki [1] [µM] | first pass metabolism [2] [%] |
| --- | --- | --- |
| CC(CO)(C(=O)O)c1ccc(C(O)CCCN2CCC(C(O)(c3ccccc3)c3ccccc3)CC2)cc1 (stereo not drawn) [4-[1-hydroxy-4-[4-(hydroxydiphenylmethyl)-1-piperidinyl]butyl]-α-(hydroxymethyl)-α-methyl-benzeneacetic acid] | 0.36 | – |
| CC(C)(C)c1ccc(C(O)CCCN2CCC(C(O)(c3ccccc3)c3ccccc3)CC2)cc1 (stereo not drawn) [Terfenadine, α-[4-(1,1-dimethylethyl)phenyl]-4-(hydroxydiphenylmethyl)-1-piperidinebutanol] | – | 99 |
